A word on the IC50: it is the point on the concentration scale where inhibition reaches its midpoint.

This is an account of results in patent US7868204B2, “Inhibitors of histone deacetylase” (MethylGene Inc., priority 2001, dated 2011).

Where two headings read alike, the source gives them in different places.

Experiment [1] has as its target T1, cloned recombinant human HDAC-1 (Homo sapiens, UniProt Q13547).
T1 construct: made in house; host or cells: Baculovirus insect cell expression system
Description: Human HDAC-1 enzyme inhibition, Assay 1 ([3H]-acetylated histone substrate, scintillation counting). Format: biochemical. As to the method:
Assay 1. HDAC inhibitors were screened against a cloned recombinant human HDAC-1 enzyme expressed and purified from a Baculovirus insect cell expression system. […] The mixture was extracted with ethyl acetate and the released [^3H]-acetic acid was quantified by scintillation counting. For inhibition studies, the enzyme was preincubated with compounds at 4° C. for 30 minutes prior to initiation of the enzymatic assay. IC50 values for HDAC enzyme inhibitors were determined by performing dose response curves with individual compounds and determining the concentration of inhibitor producing fifty percent of the maximal inhibition.

In a further experiment the test system is HCT116 cells. Description: MTT assay. Format: cell-based. To be noted: Homo sapiens, HCT116 cells, 72 hours. As to the method:
HCT116 cells (2000/well) were plated into 96-well tissue culture plates one day before compound treatment. Compounds at various concentrations were added to the cells. The cells were incubated for 72 hours at 37° C. in 5% CO2 incubator. MTT (3-[4,5-dimethylthiazol-2-yl]-2,5 diphenyl tetrazolium bromide, Sigma) was added at a final concentration of 0.5 mg/ml and incubated with the cells for 4 hours before one volume of solubilization buffer (50% N,N-dimethylformamide, 20% SDS, pH 4.7) was added onto the cultured cells. […] OD values were converted to cell numbers according to a standard growth curve of the relevant cell line.

Where [2] appears, read: Table 5d, read-out: HDAC-1 IC50.
Setting [3] is: Table 5F, read-out: Human HDAC-1 IC50.
Setting [4] is: Table 5b, read-out: Human HDAC-1 IC50.
Setting [5] is: Table 5c, read-out: Human HDAC-1 IC50.

T1 sequence (Q13547 whole entry): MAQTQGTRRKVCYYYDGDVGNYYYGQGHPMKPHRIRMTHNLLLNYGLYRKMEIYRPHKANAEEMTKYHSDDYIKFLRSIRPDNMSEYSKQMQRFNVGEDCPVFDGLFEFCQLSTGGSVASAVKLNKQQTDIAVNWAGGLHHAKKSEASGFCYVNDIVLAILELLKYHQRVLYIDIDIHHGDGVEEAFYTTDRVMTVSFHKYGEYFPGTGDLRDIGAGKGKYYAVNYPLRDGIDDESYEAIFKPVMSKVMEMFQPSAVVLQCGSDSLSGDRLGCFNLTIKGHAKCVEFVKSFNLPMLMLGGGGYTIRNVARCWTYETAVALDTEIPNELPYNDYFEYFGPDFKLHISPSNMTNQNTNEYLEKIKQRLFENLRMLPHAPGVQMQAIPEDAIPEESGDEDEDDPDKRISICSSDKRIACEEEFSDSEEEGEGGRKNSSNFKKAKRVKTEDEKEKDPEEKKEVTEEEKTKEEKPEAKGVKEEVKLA

Consider `Nc1ccccc1NC(=O)/C=C/c1ccc(CNc2ccc3c(c2)OCO3)cc1` [Cpd 505, N-(2-Amino-phenyl)-3-[4-(benzo[1,3]dioxol-5-ylaminomethyl)-phenyl]-acrylamide], for which the IC50 amounted to 3 µM in experiment [1] (setting [2]) and 6 µM in the experiment on HCT116 cells (HCT-116, Table 5d).

Regarding `Nc1ccccc1NC(=O)/C=C/c1ccc(CNc2ccc(Br)cc2)cc1` [Cpd 545, N-(2-Amino-phenyl)-3-{4[(4-bromo-phenylamino)-methyl]-phenyl}-acrylamide], the IC50 in experiment [1] (setting [2]) came out at 2 µM; in the experiment with HCT116 cells (HCT-116, Table 5d), 12 µM. As for `Cc1ccc(Sc2ccc(C(=O)Nc3ccccc3N)cn2)cc1` [Cpd 464, N-(2-Amino-phenyl)-6-p-tolylsulfanyl-nicotinamide], the IC50 in experiment [1] (setting [3]) was 4 µM; with HCT116 cells (HCT-116, 72 h, Table 5F), 11 µM. For `CCCCNc1nc(NCCc2ccccc2)nc(NCc2ccc(C(=O)Nc3ccccc3N)cc2)n1` [Cpd 473], the 50% inhibitory concentration (IC50) in experiment [1] (setting [4]) stood at 4 µM; with HCT116 cells (HCT-116, 72 h, Table 5b), 3 µM. For the compound `Nc1nc(NCc2ccc(C(=O)Nc3ccccc3N)cc2)c2nc[nH]c2n1` [Cpd 331, N-(2-Amino-phenyl)-4-[(2-amino-9H-purin-6-ylamino)-methyl]-benzamide], the half-maximal inhibitory concentration (IC50) in experiment [1] (setting [3]) amounted to 4 µM; with HCT116 cells (HCT-116, 72 h, Table 5F) it was 10 µM. For the compound `Cc1cc(C)n(-c2ccc(C(=O)Nc3ccccc3N)cc2)n1` [compound 286, N-(2-Amino-phenyl)-4-(3,5-dimethyl-pyrazol-1-yl)-benzamide], the IC50 was determined as 5 µM in experiment [1] (setting [3]) and 2 µM in the experiment on HCT116 cells (HCT-116, 72 h, Table 5F). For `CNc1nc2cc(NCc3ccc(C(=O)Nc4ccccc4N)cc3)ccc2s1` [Cpd 456, N-(2-Amino-phenyl)-4-[(2-methylamino-benzothiazol-5-ylamino)-methyl]-benzamide] the same measures were 3 µM and 0.4 µM. For `Nc1nc(NCc2ccc(C(=O)Nc3ccccc3N)cc2)nc(-c2ccccc2)n1` [Cpd 484], the IC50 in experiment [1] (setting [4]) turned out to be 2 µM; in the experiment on HCT116 cells (HCT-116, 72 h, Table 5b) it was 0.3 µM.

For `Nc1ccccc1NC(=O)/C=C/c1ccc(CNc2cccc(F)c2)cc1` [Cpd 559, N-(2-Amino-phenyl)-3-{4-[(3-fluoro-phenylamino)-methyl]-phenyl}-acrylamide], the concentration for half-maximal inhibition (IC50) in experiment [1] (setting [2]) worked out at 4 µM; in the experiment on HCT116 cells (HCT-116, Table 5d), 11 µM. On to `Nc1ccccc1NC(=O)c1ccc(CN2CCOCC2)cc1` [Cpd 328], for which the IC50 turned out to be 17 µM in experiment [1] (setting [3]) and 10 µM in the experiment on HCT116 cells (HCT-116, 72 h, Table 5F). `COc1cc(-c2ccc3sc(NCc4ccc(C(=O)Nc5ccccc5N)cc4)nc3c2)cc(OC)c1OC` [Cpd 194]: in experiment [1] (setting [3]), the IC50 was 3 µM. `Nc1ccccc1NC(=O)/C=C/c1ccc(CNc2cccc(I)c2)cc1` [Cpd 548, N-(2-Amino-phenyl)-3-{4-[(3-iodo-phenylamino)-methyl]-phenyl}-acrylamide]: the IC50 in experiment [1] (setting [2]) came out at 3 µM; in the experiment with HCT116 cells (HCT-116, Table 5d) it was 9 µM.

With `COc1cc(OC)c(OC)cc1CNc1ccc(/C=C/C(=O)Nc2ccccc2N)cc1` [Cpd 517], the IC50 turned out to be 6 µM in experiment [1] (setting [2]) and 5 µM in the experiment with HCT116 cells (HCT-116, Table 5d).

Take `COc1cc(NCc2ccc(/C=C/C(=O)Nc3ccccc3N)cc2[N+](=O)[O-])cc(OC)c1OC` [Cpd 567]: the IC50 is 13 µM in experiment [1] (setting [2]) and 3 µM in the experiment on HCT116 cells (HCT-116, Table 5d). Regarding `COc1cc(CN(C)Cc2ccc(/C=C/C(=O)Nc3ccccc3N)cc2)cc(OC)c1OC` [Cpd 107], the IC50 in experiment [1] (setting [5]) was determined as 15 µM; with HCT116 cells (HCT-116, 72 h, Table 5c), 17 µM. On to `N#Cc1cccc(NCc2ccc(C=CC(=O)Nc3ccccc3N)cc2)c1` [Cpd 532], for which the IC50 in experiment [1] (setting [2]) was 3 µM; in the experiment on HCT116 cells (HCT-116, Table 5d), 5 µM.

On to `Nc1ccccc1NC(=O)c1ccc(CNc2ccc3[nH]c(=O)[nH]c3c2)cc1` [Cpd 449, N-(2-Amino-phenyl)-4-[(2-oxo-2,3-dihydro-1H-benzoimidazol-5-ylamino)-methyl]-benzamide], for which the IC50 amounted to 1 µM in experiment [1] (setting [3]) and 6 µM in the experiment on HCT116 cells (HCT-116, 72 h, Table 5F). Turning to `COc1ccc2nc(NCc3ccc(/C=C/C(=O)Nc4ccccc4N)cc3)sc2c1` [Cpd 502], the IC50 in experiment [1] (setting [2]) is 3 µM; with HCT116 cells (HCT-116, Table 5d) it was above 25 µM. Consider `COc1ccc(C2=NCC(c3ccc(C(=O)Nc4ccccc4N)cc3)O2)cc1OC` (centres unmarked) [compound 305, N-(2-Amino-phenyl)-4-[2-(3,4-dimethoxy-phenyl)-4,5-dihydro-oxazol-5-yl]-benzamide], for which the IC50 in experiment [1] (setting [3]) came out at 4 µM; with HCT116 cells (HCT-116, 72 h, Table 5F), 2 µM. The corresponding values for `Nc1ccccc1NC(=O)c1ccc(CNc2ccc(OCc3cccnc3)cc2)cc1` [Cpd 408, N-(2-Amino-phenyl)-4-{[4-(pyridin-3-ylmethoxy)-phenylamino]-methyl}-benzamide] are 4 µM and 2 µM. For `CCCc1nc(Cc2ccc(C(=O)Nc3ccccc3N)cc2)no1` [Cpd 356] the same measures were 5 µM and 2 µM. For `COc1cc(C2CCC(c3ccc(C(=O)Nc4ccccc4N)cc3)O2)cc(OC)c1OC` (centres unmarked) [compound 290, N-(2-Amino-phenyl)-4-[5-(3,4,5-trimethoxy-phenyl)-tetrahydro-furan-2-yl]-benzamide] the same measures were 11 µM and 3 µM.

On to `Nc1ccccc1NC(=O)c1ccc(CNc2ccc(SC(F)(F)F)cc2)cc1` [Cpd 450, N-(2-Amino-phenyl)-4-[(4-trifluoromethylsulfanyl-phenylamino)-methyl]-benzamide], for which the IC50 came to 3 µM in experiment [1] (setting [3]) and 2 µM in the experiment with HCT116 cells (HCT-116, 72 h, Table 5F). `CSc1ccc(NCc2ccc(/C=C/C(=O)Nc3ccccc3N)cc2)cc1F` [Cpd 565, N-(2-Amino-phenyl)-3-{4-[(3-fluoro4-methylsulfanyl-phenylamino)-methyl]-phenyl}-acrylamide]: the IC50 in experiment [1] (setting [2]) is 5 µM; in the experiment with HCT116 cells (HCT-116, Table 5d), 17 µM. Regarding `CC(=O)c1cc2c(cc1NCc1ccc(/C=C/C(=O)Nc3ccccc3N)cc1)OCO2` [Cpd 501, 3-{4-[(6-Acetyl-benzo[1,3]dioxol-5-ylamino)-methyl]-phenyl}-N-(2-amino-phenyl)-acrylamide], the IC50 in experiment [1] (setting [2]) came to 4 µM; with HCT116 cells (HCT-116, Table 5d), 10 µM.

Turning to `CSc1cccc(NCc2ccc(/C=C/C(=O)Nc3ccccc3N)cc2)c1` [Cpd 555, N-(2-Amino-phenyl)-3-{4-[(3-methylsulfanyl-phenylamino)-methyl]-phenyl}-acrylamide], the IC50 in experiment [1] (setting [2]) is 14 µM; with HCT116 cells (HCT-116, Table 5d), 7 µM. Regarding `Nc1ccccc1NC(=O)c1ccc(Cn2cnc3cc(F)c(F)cc3c2=O)cc1` [Cpd 339, N-(2-Amino-phenyl)-4-(6,7-difluoro-4-oxo-4H-quinazolin-3-ylmethyl)-benzamide], the IC50 in experiment [1] (setting [3]) turned out to be 4 µM; in the experiment on HCT116 cells (HCT-116, 72 h, Table 5F) it was 3 µM. `Nc1ccccc1NC(=O)/C=C/c1ccc2c(c1)-c1ccccc1C2` [Cpd 519]: in the experiment with HCT116 cells (HCT-116, Table 5d), the half-inhibitory concentration (IC50) turned out to be 6 µM. `COc1ccc(CNc2ccc3cc(/C=C/C(=O)Nc4ccccc4N)ccc3n2)cc1` [Cpd 88, N-(2-aminophenyl)-3-[2-(4-methoxy-benzylamino)-quinolin-6-yl]-acrylamide] came in with an IC50 in the experiment with HCT116 cells (HCT-116, 72 h, Table 5c) above 39 µM.

As for `COc1ccc(NCc2ccc(C(=O)Nc3cc(C(F)(F)F)ccc3N)cc2)cc1OC` [Cpd 453, N-(2-Amino-5-trifluoromethyl-phenyl)-4-[(3,4-dimethoxy-phenylamino)-methyl]-benzamide], in the experiment on HCT116 cells (HCT-116, 72 h, Table 5F), the IC50 stood at 37 µM. In the experiment on HCT116 cells (HCT-116, Table 5d), `COc1ccccc1NCc1ccc(/C=C/C(=O)Nc2ccccc2N)cc1` [Cpd 508, N-(2-Amino-phenyl)-3-{4-[(2-methoxy-phenylamino)-methyl]-phenyl}-acrylamide] returned an IC50 of 11 µM. Regarding `COc1cc2c(cc1OC)CN(c1ccc(/C=C/C(=O)Nc3ccccc3N)cc1)CC2` [Cpd 498, N-(2-Amino-phenyl)-3-[4-(6,7-dimethoxy-3,4-dihydro-1H-isoquinolin-2-yl)-phenyl]-acrylamide], in experiment [1] (setting [2]), the IC50 was above 25 µM. In the case of `Nc1ccccc1NC(=O)/C=C/c1ccc(CSc2ccc3ccccc3n2)cc1` [Cpd 110, N-(2-Amino-phenyl)-3-[4-(quinolin-2-ylsulfanylmethyl)-phenyl]-acrylamide], the IC50 in experiment [1] (setting [5]) amounted to 3 µM.

In turn, `COc1cccc(NCc2ccc(/C=C/C(=O)Nc3ccccc3N)cc2)c1` [Cpd 507, N-(2-Amino-phenyl)-3-{4-[(3-methoxy-phenylamino)-methyl]-phenyl}-acrylamide] displayed an IC50 in the experiment with HCT116 cells (HCT-116, Table 5d) of 10 µM. With `Cc1nc(NCCc2ccccc2)nc(NCc2ccc(C(=O)Nc3ccccc3N)cc2)n1` [Cpd 483, N-(2-amino-phenyl)-4-[(6-methyl-4-phenethylamino-[1,3,5]triazin-2-yl-amino)-methyl]-benzamide], in experiment [1] (setting [4]), the IC50 amounted to 4 µM. On to `Nc1ccccc1NC(=O)c1ccc(-c2ccc(CNC3Cc4ccccc4C3)s2)cc1` [Cpd 465], for which the IC50 in experiment [1] (setting [3]) was determined as 2 µM.

With `COc1ccc(CNc2ccc(/C=C/C(=O)Nc3ccccc3N)cc2)cc1` [Cpd 65, N-(2-aminophenyl)-3-{4-(4-methoxy-benzylamino)-phenyl}-acrylamide], it took 37 µM to reach half-maximal inhibition with HCT116 cells (HCT-116, 72 h, Table 5c) (IC50). In the experiment with HCT116 cells (HCT-116, Table 5d), `Nc1ccccc1NC(=O)/C=C/c1ccc(CNc2ccccc2)cc1` [Cpd 509, N-(2-Amino-phenyl)-3-(4-phenylaminomethyl-phenyl)-acrylamide] displayed an IC50 of 11 µM. Take `COc1ccc(NCc2ccc(/C=C/C(=O)Nc3ccccc3N)cc2)cc1` [Cpd 541, N-(2-Amino-phenyl)-3-{4-[(4-methoxy-phenylamino)-methyl]-phenyl}-acrylamide]: the IC50 in the experiment on HCT116 cells (HCT-116, Table 5d) was determined as 12 µM.
